Test results: patent US11078197B2, “5-membered and bicyclic heterocyclic amides as inhibitors of rock” (BRISTOL-MYERS SQUIBB COMPANY, priority 2017, dated 2021)
Like-named read-outs stand apart in the source and are kept apart here.

Columns and labels:
ROCK2 = ROCK2 (Homo sapiens (Human), UniProt O75116); experiment: ROCK2 assay (peptide phosphorylation, LABCHIP 3000 Reader); format: biochemical; conditions: 5 μM ATP, 1.5 μM peptide substrate, dose-response
Description: After incubation, the reaction was terminated by the addition of EDTA and the phosphorylated and non-phosphorylated peptides separated using a LABCHIP®3000 Reader (Caliper Life Sciences). […] Compounds were tested in dose-response format, and the inhibition of kinase activity was calculated at each concentration of compound. […] Representative Examples were tested in the ROCK2 assay described above and found having ROCK2 inhibitory activity.

[1] = system: spontaneously hypertensive rat, renal hypertensive rat and deoxycortisone acetate salt hypertensive rat models; conditions: cited from earlier work
[2] = system: neointimal formation in rats; conditions: cited from earlier work
Dahl salt-sensitive rats = conditions: congestive heart failure; cited from earlier work
[3] = system: porcine model of IL-1 beta-induced coronary stenosis; conditions: long term treatment; cited from earlier work
rat stroke model = conditions: cited from earlier work

ROCK2, sequence (O75116 whole entry, species assumed): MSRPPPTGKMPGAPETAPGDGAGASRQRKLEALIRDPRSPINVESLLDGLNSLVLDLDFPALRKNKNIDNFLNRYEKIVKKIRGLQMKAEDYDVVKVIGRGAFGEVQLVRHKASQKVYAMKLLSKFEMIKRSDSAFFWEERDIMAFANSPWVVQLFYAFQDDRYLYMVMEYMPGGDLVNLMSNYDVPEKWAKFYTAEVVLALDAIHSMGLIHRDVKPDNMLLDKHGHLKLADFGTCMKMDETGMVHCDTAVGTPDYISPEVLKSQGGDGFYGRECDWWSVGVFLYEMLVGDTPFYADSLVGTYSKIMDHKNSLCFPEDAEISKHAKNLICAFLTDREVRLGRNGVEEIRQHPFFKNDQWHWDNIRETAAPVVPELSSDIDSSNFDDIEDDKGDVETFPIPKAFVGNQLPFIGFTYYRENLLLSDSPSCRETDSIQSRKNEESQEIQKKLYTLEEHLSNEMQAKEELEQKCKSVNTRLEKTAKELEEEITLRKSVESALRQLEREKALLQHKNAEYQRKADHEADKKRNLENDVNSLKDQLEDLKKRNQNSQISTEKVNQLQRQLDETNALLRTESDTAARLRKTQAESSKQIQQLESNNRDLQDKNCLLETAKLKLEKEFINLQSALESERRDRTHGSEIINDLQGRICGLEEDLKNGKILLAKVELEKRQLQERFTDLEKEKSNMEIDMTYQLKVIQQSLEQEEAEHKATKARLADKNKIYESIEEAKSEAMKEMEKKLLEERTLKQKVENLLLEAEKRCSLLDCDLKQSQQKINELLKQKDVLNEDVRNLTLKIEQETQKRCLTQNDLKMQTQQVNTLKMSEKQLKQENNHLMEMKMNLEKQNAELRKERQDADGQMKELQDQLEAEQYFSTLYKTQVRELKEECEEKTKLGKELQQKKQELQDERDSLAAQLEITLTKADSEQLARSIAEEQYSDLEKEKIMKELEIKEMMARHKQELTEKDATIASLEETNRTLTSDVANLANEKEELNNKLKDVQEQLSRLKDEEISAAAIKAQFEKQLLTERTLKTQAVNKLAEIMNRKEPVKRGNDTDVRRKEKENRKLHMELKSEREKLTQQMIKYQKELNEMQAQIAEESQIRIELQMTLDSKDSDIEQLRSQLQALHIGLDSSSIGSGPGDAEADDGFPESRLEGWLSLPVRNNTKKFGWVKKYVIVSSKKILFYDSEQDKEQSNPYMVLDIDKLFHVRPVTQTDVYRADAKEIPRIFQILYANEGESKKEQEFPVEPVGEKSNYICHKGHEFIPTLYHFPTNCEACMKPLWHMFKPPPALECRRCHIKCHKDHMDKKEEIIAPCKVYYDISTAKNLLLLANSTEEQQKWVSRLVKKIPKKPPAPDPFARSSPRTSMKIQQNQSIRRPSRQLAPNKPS

Cn1ncc2cc(C(N)=O)c(O[C@H]3C[C@@]4(C[C@H](NC(=O)c5cc(-c6ccc(S(C)(=O)=O)cc6)n(C(F)F)n5)C4)C3)nc21 (stereo partly shown) [Example 154, 1-(difluoromethyl)-5-(4-methanesulfonylphenyl)-N-[(4s)-6-({5-carbamoyl-1-methyl-1H-pyrazolo[3,4-b]pyridin-6-yl}oxy)spiro[3.3]heptan-2-yl]-1H-pyrazole-3-carboxamide]
IC50 (ROCK2): 2.3 nM

Cn1ncc2cc(C(N)=O)c(O[C@H]3C[C@@]4(C[C@H](NC(=O)c5cc(-c6ccc(C#N)cc6)n(C(F)F)n5)C4)C3)nc21 (stereo partly shown) [Example 155, 5-(4-cyanophenyl)-1-(difluoromethyl)-N-[(4s)-6-({5-carbamoyl-1-methyl-1H-pyrazolo[3,4-b]pyridin-6-yl}oxy)spiro[3.3]heptan-2-yl]-1H-pyrazole-3-carboxamide]
IC50 (ROCK2): 2.7 nM

Cn1ncc2cc(C(N)=O)c(O[C@H]3C[C@@]4(C[C@H](NC(=O)c5nnc(-c6cccc(S(C)(=O)=O)c6)s5)C4)C3)nc21 (stereo partly shown) [Example 156, 5-(3-methanesulfonylphenyl)-N-[(4s)-6-({5-carbamoyl-1-methyl-1H-pyrazolo[3,4-b]pyridin-6-yl}oxy)spiro[3.3]heptan-2-yl]-1,3,4-thiadiazole-2-carboxamide]
IC50 (ROCK2): 4.3 nM

Cn1ncc2cc(C(N)=O)c(O[C@H]3C[C@@]4(C[C@H](NC(=O)c5cnc6c(cnn6CC(F)F)c5)C4)C3)nc21 (stereo partly shown) [Example 157, 1-methyl-6-{[(4s)-6-[1-(2,2-difluoroethyl)-1H-pyrazolo[3,4-b]pyridine-5-amido]spiro[3.3]heptan-2-yl]oxy}-1H-pyrazolo[3,4-b]pyridine-5-carboxamide]
IC50 (ROCK2): 10.9 nM

Cc1c(C(=O)N[C@H]2C[C@]3(C2)C[C@H](Oc2nc4c(cnn4C)cc2C(N)=O)C3)cnn1-c1ccc(-c2cnn(CC(F)F)c2)cc1 (stereo partly shown) [Example 158, 1-{4-[1-(2,2-difluoroethyl)-1H-pyrazol-4-yl]phenyl}-5-methyl-N-[(4s)-6-({5-carbamoyl-1-methyl-1H-pyrazolo[3,4-b]pyridin-6-yl}oxy)spiro[3.3]heptan-2-yl]-1H-pyrazole-4-carboxamide]
IC50 (ROCK2): 4.6 nM

Cn1ncc2cc(C(N)=O)c(O[C@H]3C[C@@]4(C[C@H](NC(=O)c5nn(CC(F)F)c6cc(OCC(C)(C)O)ccc56)C4)C3)nc21 (stereo partly shown) [Example 159, 1-(2,2-difluoroethyl)-6-(2-hydroxy-2-methylpropoxy)-N-[(4s)-6-({5-carbamoyl-1-methyl-1H-pyrazolo[3,4-b]pyridin-6-yl}oxy)spiro[3.3]heptan-2-yl]-1H-indazole-3-carboxamide]
IC50 (ROCK2): 1.1 nM

Cn1ncc2cc(C(N)=O)c(O[C@H]3C[C@@]4(C[C@H](NC(=O)c5nn(CC(F)F)c6cc(OCC(C)(C)F)ccc56)C4)C3)nc21 (stereo partly shown) [Example 160, 1-(2,2-difluoroethyl)-6-(2-fluoro-2-methylpropoxy)-N-[(4s)-6-({5-carbamoyl-1-methyl-1H-pyrazolo[3,4-b]pyridin-6-yl}oxy)spiro[3.3]heptan-2-yl]-1H-indazole-3-carboxamide]
IC50 (ROCK2): 1.6 nM

Cc1sc2cc(C(N)=O)c(O[C@H]3C[C@@]4(C[C@H](NC(=O)c5cnn(-c6ccc(F)cc6F)c5C)C4)C3)nc2c1C (stereo partly shown) [Example 161, 1-(2,4-difluorophenyl)-5-methyl-N-[(4s)-6-({6-carbamoyl-2,3-dimethylthieno[3,2-b]pyridin-5-yl}oxy)spiro[3.3]heptan-2-yl]-1H-pyrazole-4-carboxamide]
IC50 (ROCK2): 223 nM

Cc1sc2cc(C(N)=O)c(O[C@H]3CC4(C[C@H](NC(=O)c5nnc(NCC(C)C)s5)C4)C3)nc2c1C (stereo partly shown) [Example 162, 5-[(2-methylpropyl)amino]-N-[(4s)-6-({6-carbamoyl-2,3-dimethylthieno[3,2-b]pyridin-5-yl}oxy)spiro[3.3]heptan-2-yl]-1,3,4-thiadiazole-2-carboxamide]
IC50 (ROCK2): 162 nM

C[C@@H](N)[C@H]1CC[C@H](C(=O)Nc2ccncc2)CC1 [Example Y-27632, Y-27632]
blood pressure ([1]; control rats): only a minor effect on blood pressure
blood pressure ([1]; three rat models of hypertension): significantly decrease blood pressure
neointimal formation [2]: inhibited neointimal formation
ventricular hypertrophy, fibrosis and function (Dahl salt-sensitive rats): improve ventricular hypertrophy, fibrosis and function

O=S(=O)(c1cccc2cnccc12)N1CCCNCC1 [fasudil]
coronary constrictive remodeling [3]: promote a regression of coronary constrictive remodeling
coronary stenosis [3]: progressively reduce coronary stenosis
infarct size and neurologic deficit (rat stroke model): reduce both the infarct size and neurologic deficit
